In patent publication US9718790B2, “Triazine derivative and pharmaceutical composition having an analgesic activity comprising the same” (SHIONOGI & CO., LTD., priority 2010, dated 2017):

Molecular target: human P2X3 receptor (Homo sapiens (Human), UniProt P56373)
Assay: Evaluation of human P2X3 receptor inhibitory activity (Fluo-3 calcium fluorescence, FDSS 3000, ATP stimulation);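 note: stimulus was 50 nM ATP with fluorescence followed for 3 min, and the response per well was peak post-ATP fluorescence divided by the reading at measurement start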
Format: cell-based
Conditions: C6BU-1 cells stably expressing human P2X3 receptor

human P2X3 receptor, sequence (P56373 whole entry): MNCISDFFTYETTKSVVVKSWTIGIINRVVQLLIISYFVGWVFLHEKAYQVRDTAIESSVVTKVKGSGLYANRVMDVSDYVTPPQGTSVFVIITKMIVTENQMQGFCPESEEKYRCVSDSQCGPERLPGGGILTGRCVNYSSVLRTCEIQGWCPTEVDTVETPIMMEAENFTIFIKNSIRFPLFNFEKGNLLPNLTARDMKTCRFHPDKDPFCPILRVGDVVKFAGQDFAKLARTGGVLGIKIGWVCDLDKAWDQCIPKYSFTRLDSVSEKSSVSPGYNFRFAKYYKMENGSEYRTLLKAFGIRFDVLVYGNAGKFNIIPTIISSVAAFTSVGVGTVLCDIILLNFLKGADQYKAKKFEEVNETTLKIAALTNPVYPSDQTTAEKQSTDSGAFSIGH

## O=c1[nH]/c(=N\c2ccc(Oc3ccnc(CO)c3)cc2)n(Cc2ccc(Cl)cc2)c(=O)n1CCO [Compound I-1986]
  IC50: 16 nM

## Cc1cc(Oc2ccc(/N=c3\[nH]c(=O)n(C[C@H](O)CO)c(=O)n3Cc3ccc(Cl)cc3)cc2)ccn1 [Compound I-1987]
  IC50: 7 nM

## CCn1c(=O)[nH]/c(=N\c2ccc(Oc3ccccc3C(=O)OC)cc2)n(Cc2ccc(Cl)cc2)c1=O [Compound I-1988]
  IC50: 391 nM

## CCOC(=O)COc1ccc(/N=c2\[nH]c(=O)n(CC)c(=O)n2Cc2ccc(Cl)cc2)cc1 [Compound I-1989]
  IC50: 619 nM

## CCOC(=O)CCn1c(=O)[nH]/c(=N\c2ccc3nc(C)sc3c2)n(CC2CCC(C)CC2)c1=O (stereo not shown) [Compound I-1990]
  IC50: 2 nM

## CCn1c(=O)[nH]/c(=N\c2ccc(Oc3ccccc3C(=O)O)cc2)n(Cc2ccc(Cl)cc2)c1=O [Compound I-1992]
  IC50: 240 nM

## CCn1c(=O)[nH]/c(=N\c2ccc(Oc3ccc(S(N)(=O)=O)cc3)cc2)n(Cc2ccc(Cl)cc2)c1=O [Compound I-1993]
  IC50: 6 nM

## Cc1nc2ccc(/N=c3\[nH]c(=O)n(CCC(=O)O)c(=O)n3CC3CCC(C)CC3)cc2s1 (stereo not shown) [Compound I-1994]
  IC50: 10 nM

## O=c1[nH]/c(=N\c2ccc(Oc3ccnc(CO)c3)cc2)n(Cc2ccc(Cl)cc2)c(=O)n1CCCO [Compound I-1995]
  IC50: 5 nM

## CCn1c(=O)[nH]/c(=N\c2ccc(Oc3cncc(C(N)=O)c3)cc2)n(Cc2ccc(Cl)cc2)c1=O [Compound I-1996]
  IC50: 4 nM

## C[C@@H](Oc1ccc(/N=c2\[nH]c(=O)n(CCC(=O)NCCO)c(=O)n2Cc2ccc(Cl)cc2)cc1)C(F)(F)F [Compound I-1998]
  IC50: 34 nM

## C[C@@H](Oc1ccc(/N=c2\[nH]c(=O)n(CC(=O)NCCO)c(=O)n2Cc2ccc(Cl)cc2)cc1)C(F)(F)F [Compound I-1999]
  IC50: 28 nM

## COc1cc(/N=c2\[nH]c(=O)n(CCCOC3CCCCO3)c(=O)n2Cc2ccc(Cl)cc2)ccc1OC(C)C (stereo not shown) [Compound I-2000]
  IC50: 3 nM

## COc1cc(/N=c2\[nH]c(=O)n(C[C@H]3COC(C)(C)O3)c(=O)n2Cc2ccc(Cl)cc2)ccc1OC(C)C [Compound I-2001]
  IC50: 5 nM

## COc1cc(/N=c2\[nH]c(=O)n(CCCO)c(=O)n2Cc2ccc(Cl)cc2)ccc1OC(C)C [Compound I-2002]
  IC50: 8 nM

## COc1cc(/N=c2\[nH]c(=O)n(C[C@H](O)CO)c(=O)n2Cc2ccc(Cl)cc2)ccc1OC(C)C [Compound I-2004]
  IC50: 13 nM

## COc1cc(/N=c2\[nH]c(=O)n(CCOC3CCCCO3)c(=O)n2Cc2ccc(Cl)cc2)ccc1OC(C)C (stereo not shown) [Compound I-2005]
  IC50: 3 nM

## COc1cc(/N=c2\[nH]c(=O)n(CCO)c(=O)n2Cc2ccc(Cl)cc2)ccc1OC(C)C [Compound I-2006]
  IC50: 36 nM

## CCn1c(=O)[nH]/c(=N\c2ccc(Oc3ccnc(OC)n3)cc2)n(Cc2ccc(Cl)cc2)c1=O [Compound I-2008]
  IC50: 7 nM

## CCn1c(=O)[nH]/c(=N\c2ccc(Oc3ccccc3C(N)=O)cc2)n(Cc2ccc(Cl)cc2)c1=O [Compound I-2009]
  IC50: 472 nM

## O=c1[nH]/c(=N\c2ccc(OC3CCC3)cc2)n(Cc2ccc(Cl)cc2)c(=O)n1CCO [Compound I-2010]
  IC50: 54 nM

## CNC(=O)c1cc(Oc2ccc(/N=c3\[nH]c(=O)n(C)c(=O)n3Cc3ccc(C)cc3)cc2)ccn1 [Compound I-2012]
  IC50: 9 nM

## CCn1c(=O)[nH]/c(=N\c2ccc(Oc3ccnc(C(=O)NC)c3)cc2)n(Cc2ccc(C)cc2)c1=O [Compound I-2013]
  IC50: 3 nM

## CCOC(=O)C1(COc2ccc(/N=c3\[nH]c(=O)n(CC)c(=O)n3Cc3ccc(Cl)cc3)cc2)CC1 [Compound I-2014]
  IC50: 360 nM

## CCn1c(=O)[nH]/c(=N\c2ccc(Oc3ccc(C)c(C(=O)OC)c3)cc2)n(Cc2ccc(Cl)cc2)c1=O [Compound I-2015]
  IC50: 32 nM

## CCn1c(=O)[nH]/c(=N\c2ccc(Oc3ccnc(O)n3)cc2)n(Cc2ccc(Cl)cc2)c1=O [Compound I-2016]
  IC50: 5 nM

## CCn1c(=O)[nH]/c(=N\c2ccc(Oc3ccc(C)c(C(=O)O)c3)cc2)n(Cc2ccc(Cl)cc2)c1=O [Compound I-2017]
  IC50: 41 nM

## Cn1c(=O)[nH]/c(=N\c2ccc(Oc3ccnc(CO)c3)cc2)n(Cc2ccc(Cl)cc2)c1=O [Compound I-2018]
  IC50: 22 nM

## CNC(=O)CCn1c(=O)[nH]/c(=N\c2ccc(OC(C)C)c(Cl)c2)n(CC2CCC(C)CC2)c1=O (stereo not shown) [Compound I-2019]
  IC50: 5 nM

## CC1CCC(Cn2c(=O)n(CCC(N)=O)c(=O)[nH]/c2=N\c2ccc(OC(C)C)c(Cl)c2)CC1 (stereo not shown) [Compound I-2020]
  IC50: 6 nM

## CCn1c(=O)[nH]/c(=N\c2ccc(OCC3(C(=O)O)CC3)cc2)n(Cc2ccc(Cl)cc2)c1=O [Compound I-2021]
  IC50: 230 nM

## CC1CCC(Cn2c(=O)n(CCO)c(=O)[nH]/c2=N\c2ccc(Oc3ccnc(O)c3)cc2)CC1 (stereo not shown) [Compound I-2022]
  IC50: 7 nM

## COC(=O)CCn1c(=O)[nH]/c(=N\c2ccc(OC(C)C)c(Cl)c2)n(Cc2ccc(C)cc2)c1=O [Compound I-2023]
  IC50: 4 nM

## O=c1[nH]/c(=N\c2ccc3nc(C4CC4)sc3c2)n(Cc2ccc(Cl)cc2)c(=O)n1CCOC1CCCCO1 (stereo not shown) [Compound I-2024]
  IC50: 5 nM

## Cc1cc2cc(/N=c3\[nH]c(=O)n(CCCOC4CCCCO4)c(=O)n3Cc3ccc(Cl)cc3)ccc2o1 (stereo not shown) [Compound I-2025]
  IC50: 5 nM

## O=c1[nH]/c(=N\c2ccc3nc(C4CC4)sc3c2)n(Cc2ccc(Cl)cc2)c(=O)n1CCO [Compound I-2026]
  IC50: 22 nM

## Cc1cc2cc(/N=c3\[nH]c(=O)n(CCCO)c(=O)n3Cc3ccc(Cl)cc3)ccc2o1 [Compound I-2027]
  IC50: 17 nM

## CCn1c(=O)[nH]/c(=N\c2ccc(Oc3cccc(C(=O)OC)c3)cc2)n(Cc2ccc(C)cc2)c1=O [Compound I-2028]
  IC50: 13 nM

## CCn1c(=O)[nH]/c(=N\c2ccc(Oc3ccc(C(=O)OC)cc3)cc2)n(Cc2ccc(C)cc2)c1=O [Compound I-2029]
  IC50: 4 nM

## COC(=O)c1ccc(Oc2ccc(/N=c3\[nH]c(=O)n(C)c(=O)n3Cc3ccc(C)cc3)cc2)cc1 [Compound I-2030]
  IC50: 6 nM

## COC(=O)c1cccc(Oc2ccc(/N=c3\[nH]c(=O)n(C)c(=O)n3Cc3ccc(C)cc3)cc2)c1 [Compound I-2031]
  IC50: 52 nM

## CCn1c(=O)[nH]/c(=N\c2ccc(Oc3ccc(S(N)(=O)=O)cc3)cc2)n(Cc2ccc(C)cc2)c1=O [Compound I-2032]
  IC50: 4 nM

## CCn1c(=O)[nH]/c(=N\c2ccc(-n3cc(C(=O)OC)ccc3=O)cc2)n(Cc2ccc(Cl)cc2)c1=O [Compound I-2033]
  IC50: 622 nM

## CCn1c(=O)[nH]/c(=N\c2ccc(Oc3cccc(C(=O)O)c3)cc2)n(Cc2ccc(C)cc2)c1=O [Compound I-2034]
  IC50: 9 nM

## CCn1c(=O)[nH]/c(=N\c2ccc(Oc3ccc(C(=O)O)cc3)cc2)n(Cc2ccc(C)cc2)c1=O [Compound I-2035]
  IC50: 22 nM

## CCn1c(=O)[nH]/c(=N\c2ccc(Oc3ccsc3C(=O)OC)cc2)n(Cc2ccc(Cl)cc2)c1=O [Compound I-2037]
  IC50: 340 nM

## Cc1[nH]c2ccc(/N=c3\[nH]c(=O)n(CCOC4CCCCO4)c(=O)n3Cc3ccc(Cl)cc3)cc2c1C (stereo not shown) [Compound I-2038]
  IC50: 13 nM

## Cc1[nH]c2ccc(/N=c3\[nH]c(=O)n(C[C@H]4COC(C)(C)O4)c(=O)n3Cc3ccc(Cl)cc3)cc2c1C [Compound I-2039]
  IC50: 9 nM

## O=c1ccccn1-c1ccc(/N=c2\[nH]c(=O)n(CCOC3CCCCO3)c(=O)n2Cc2ccc(Cl)cc2)cc1 (stereo not shown) [Compound I-2040]
  IC50: 23 nM
